Test system: multidrug-resistant (MDR) strains of Mycobacterium tuberculosis
Type: cell-based
Conditions: MDR-TB, drug resistance at least to isoniazid and rifampicin; REMA, Middlebrook 7H9 broth, 8 days at 37° C. plus overnight with resazurin

Structure (SMILES) | Anti-tubercular activity against Mycobacterium tuberculosis MDR (MIC)
CCOC(=O)C1=C(C)NC(Nc2ccc(Br)cc2C#N)=NC1c1ccc(F)cc1 (centres unmarked) [DHPM-KNV6, Ethyl 2-((4-bromo-2-cyanophenyl)amino)-4-(4-fluorophenyl)-6-methyl-1,4-dihydropyrimidine-5-carboxylate] | No activity
CCOC(=O)C1=C(C)NC(Nc2ccccc2I)=NC1c1ccc(F)cc1 (centres unmarked) [DHPM-KNV8, Ethyl 4-(4-fluorophenyl)-2-((2-iodophenyl)amino)-6-methyl-1,4-dihydropyrimidine-5-carboxylate] | No activity
